Results on seven compounds are retold here after US9321721B2, “Kinase inhibitors” (Allergan, Inc., priority 2013, dated 2016).

“Also recorded” adds a separate entry of the source.

The assay concerns the target VEGFR2 (purified cytoplasmic domain KDR protein) (Homo sapiens (Human), UniProt P35968). In words: VEGFR2 Kinase Assay (biochemical KDR kinase assay, ELISA readout). As to conditions: for IC50: 2.7 μM ATP, poly-Glu-Tyr (4:1) substrate, 15 minute incubation at 30° C.; for VEGFR2 potency as shown in this assay (in words): qualitative ranking based on the Table 2 data. As to the method: VEGFR2 kinase potency of select analogs was determined by the following assay:
Biochemical KDR kinase assays were performed in 96 well microtiter plates that were coated overnight with 75 μg/well of poly-Glu-Tyr (4:1) in 10 mM Phosphate Buffered Saline (PBS), pH 7.4. The coated plates were washed with 2 mls per well PBS+0.05% Tween-20 (PBS-T), blocked by incubation with PBS containing 1% BSA, then washed with 2 mls per well PBS-T prior to starting the reaction. Reactions were carried out in 100 μL reaction volumes containing 2.7 μM ATP in kinase buffer (50 mM Hepes buffer pH 7.4, 20 mM MgCl2, 0.1 mM MnCl2 and 0.2 mM Na3VO4). Test compounds were reconstituted in 100% DMSO and added to the reaction to give a final DMSO concentration of 5%. Reactions were initiated by the addition 20 ul per well of kinase buffer containing 200-300 ng purified cytoplasmic domain KDR protein (BPS Bioscience, San Diego, Calif.). Following a 15 minute incubation at 30° C., the reactions were washed 2 mls per well PBS-T. 100 μl of a monoclonal anti-phosphotyrosine antibody-peroxidase conjugate diluted 1:10,000 in PBS-T was added to the wells for 30 minutes. Following a 2 mls per well wash with PBS-Tween-20, 100 μl of O-Phenylenediamine Dihydrochloride in phosphate-citrate buffer, containing urea hydrogen peroxide, was added to the wells for 7-10 minutes as a colorimetric substrate for the peroxidase. The reaction was terminated by the addition of 100 μl of 2.5N H2SO4 to each well and read using a microplate ELISA reader set at 492 nm. IC50 values for compound inhibition were calculated directly from graphs of optical density (arbitrary units) versus compound concentration following subtraction of blank values.
Background: An ELISA detects its analyte on a solid surface through an enzyme-linked reagent.

VEGFR2 (purified cytoplasmic domain KDR protein), sequence (P35968 786-1356): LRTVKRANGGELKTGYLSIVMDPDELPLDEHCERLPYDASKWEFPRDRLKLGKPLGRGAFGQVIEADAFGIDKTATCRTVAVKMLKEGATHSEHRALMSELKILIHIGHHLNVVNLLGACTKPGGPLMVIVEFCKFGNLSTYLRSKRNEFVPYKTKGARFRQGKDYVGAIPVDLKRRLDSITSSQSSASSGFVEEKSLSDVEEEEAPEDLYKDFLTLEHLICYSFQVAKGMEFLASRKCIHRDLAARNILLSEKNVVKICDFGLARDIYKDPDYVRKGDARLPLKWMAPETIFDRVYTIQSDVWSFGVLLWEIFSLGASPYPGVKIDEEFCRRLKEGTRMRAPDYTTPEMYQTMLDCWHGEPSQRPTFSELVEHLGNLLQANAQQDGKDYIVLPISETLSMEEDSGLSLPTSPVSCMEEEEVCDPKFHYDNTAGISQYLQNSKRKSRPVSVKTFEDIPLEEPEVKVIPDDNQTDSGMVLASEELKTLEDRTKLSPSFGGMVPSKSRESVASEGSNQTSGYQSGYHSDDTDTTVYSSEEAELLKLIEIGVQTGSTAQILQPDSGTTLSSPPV

Turning to `NC(=O)/C=C(/c1ccccc1)c1ccc(NC(=O)Nc2cc(C(F)(F)F)ccc2F)cc1` [Example 1, (2Z)-3-{4-[({[2-fluoro-5-(trifluoromethyl)phenyl]amino}carbonyl)amino]phenyl}-3-phenylacrylamide], the midpoint of inhibition, the IC50, lay at 626 nM and the “VEGFR2 potency as shown in this assay (in words)” value (“VEGFR2 potency as shown” for short) was “excellent VEGFR2 potency”. For the compound `COc1ccc(/C(=C/C(N)=O)c2ccc(NC(=O)Nc3cc(C(F)(F)F)ccc3F)cc2)cc1` [Example 3, (2E)-3-{4-[({[2-fluoro-5-(trifluoromethyl)phenyl]amino}carbonyl)amino]phenyl}-3-(4-methoxyphenyl)acrylamide], the IC50 worked out at 457 nM and the “VEGFR2 potency as shown” value is recorded as “excellent VEGFR2 potency; also recorded: best VEGFR2 potency”.

`NC(=O)/C=C/c1cccc(NC(=O)Nc2cc(C(F)(F)F)ccc2F)c1` [Example 5, (2E)-3-{3-[({[2-fluoro-5-(trifluoromethyl)phenyl]amino}carbonyl)amino]phenyl}acrylamide] came in with an IC50 of over 10000 nM.

Regarding `NC(=O)/C=C\c1ccc(NC(=O)Nc2cc(C(F)(F)F)ccc2F)cc1` [Example 7, (2Z)-3-{4-[({[2-fluoro-5-(trifluoromethyl)phenyl]amino}carbonyl)amino]phenyl}acrylamide], the IC50 was found to be 2790 nM and the “VEGFR2 potency as shown” value is “excellent VEGFR2 potency”. The compound `NC(=O)/C=C/c1ccc(NC(=O)Nc2cc(C(F)(F)F)ccc2F)cc1` [Example 6, (2E)-3-{4-[({[2-fluoro-5-(trifluoromethyl)phenyl]amino}carbonyl)amino]phenyl}acrylamide] had an IC50 of over 10000 nM. For `COc1cccc(/C(=C/C(N)=O)c2ccc(NC(=O)Nc3cc(C(F)(F)F)ccc3F)cc2)c1` [Example 2, (2E)-3-{4-[({[2-fluoro-5-(trifluoromethyl)phenyl]amino}carbonyl)amino]phenyl}-3-(3-methoxyphenyl)acrylamide], the IC50 worked out at 945 nM and the “VEGFR2 potency as shown” value was “excellent VEGFR2 potency”. Compound `NC(=O)/C=C(/c1ccccc1)c1cccc(NC(=O)Nc2cc(C(F)(F)F)ccc2F)c1` [Example 4, (2Z)-3-{3-[({[2-fluoro-5-(trifluoromethyl)phenyl]amino}carbonyl)amino]phenyl}-3-phenylacrylamide] yielded an IC50 of over 10000 nM.

What is called IC50 is the midpoint of a concentration-inhibition curve. A higher IC50 goes with lower potency.
